Key:
[1] = WST-1 cell proliferation assay, sORL8 cells; format: cell-based; conditions: human
Description: (§1) The WST-1 cell proliferation assay was performed as described previously. Briefly, The cells were plated onto 96-well plates (1×10^3 cells per well) in triplicate and then treated with each reagent at several concentrations for 72 hrs. After treatment, the cells were subjected to the WST-1 cell proliferation assay (Takara Bio, Otsu, Japan) according to the manufacturer’s protocol. This assay is based on the enzymatic cleavage of the tetrazolium salt WST-1 to formazan by cellular mitochondrial dehydrogenases present in viable cells. Therefore, there are […] the value of the WST-1 assay becomes zero. The experiments were performed at least in triplicate. From the assay results, the 50% cytotoxic concentration (CC50) of each reagent was determined.

[2] = tested on: HCV-JFH-1 strain (genotype 2a) in Li23-derived D7 cells; experiment: JFH-1 reporter assay system, D7 cells; format: cell-based, hepatitis C virus; conditions: D7 cells inoculated with JR/C5B/BX-2 supernatant, RL assay
Description: HCV infection was performed as described previously. RSc and D7 cells were inoculated with supernatant from RSc cells replicating JR/C5B/BX-2 [29].
Figure 2 Characterization of anti-HCV activities of N-89 and N-251. (A) Schematic gene organization of authentic HCV-RNA (HCV-O/RLGE). The positions of four adaptive mutations - Q1112R, P1115L, E1202G, and K1609E - are indicated by a black star. (B) N-89 and N-251 inhibited authentic HCV-RNA replication. The cells harboring HCV-O/RLGE RNA [19] were treated with N-89 (left panel) and N-251 (right panel) for 72 hrs, followed by real-time LightCycler PCR (black circles in the upper panel) and WST-1 assay (open triangles in the upper panel). The relative value (%) calculated at each point, when the level in non-treated cells was assigned as 100%, is presented here. Data are expressed as the means±standard deviation of triplicate assays. Western blot analysis (lower panels) was performed as described in Fig. 1B. […]
We next examined whether N-89 and N-251 worked in an HCV production system using HCV-JFH-1 strain (genotype 2a). […] To clarify whether anti-HCV activity depends on the difference of genotype or assay model, we evaluated the activities of N-89 and N-251 using RSc-JRN/35B [Ikeda et al., submitted] cells harboring a subgenomic HCV-JFH-1 replicon as an additional assay.

[3] = tested on: genome-length HCV-RNA (O strain of genotype 1b) replication in Li23-derived ORL11 cells; experiment: ORL11 RL assay; format: cell-based; conditions: Hepatitis C virus, 72 hrs
Description: RSc and D7 cells were derived from the cell lines HuH-7 and Li23, respectively, were cultured as described previously, [29]. HuH-7-derived OR6 [13], AH1R [30], and 1B-4R [Ikeda et al., submitted] cells harboring genome-length HCV-RNA and HuH-7-derived polyclonal sOR [31], and RSc-JRN/35B [Ikeda et al., submitted] cells harboring an HCV subgenomic replicon were cultured with medium in the presence of G418 (0.3 mg/ml; Geneticin, Invitrogen, Carlsbad, CA) as described previously. Li23-derived ORL8 [20], ORL11 [20], 1B-4RL [Ikeda et al., submitted], and KAH5RL [Ikeda et al., submitted] cells harboring genome-length HCV-RNA were maintained with medium in the presence of G418 (0.3 mg/ml) as described previously. Li23-derived polyclonal sORL8 and sORL11 cells harboring an HCV replicon, which were established by the transfection of ORN/3-5B/QR,KE,SR RNA into the cured OL8 and OL11 cells, respectively, were also cultured with medium in the presence of G418 (0.3 mg/ml) as described previously. Cured cells, from which the HCV-RNA had been eliminated by IFN treatment, were also maintained with medium in the absence of G418 as described previously. […] Therefore, when HCV-RNA is excluded from the cells or when its level is decreased, the cells are killed in the presence of G418. […]
(§2) The SI value of each reagent was determined by dividing the CC50 value by the EC50 value.

[4] = tested on: genome-length HCV-RNA (O strain of genotype 1b) replication in HuH-7-derived OR6 cells; experiment: OR6 RL assay; format: cell-based, hepatitis C virus; conditions: for EC50: Hepatitis C virus, OR6 assay, HuH-7, HCV strain O, 72 hrs, RL assay
Description: RSc and D7 cells were derived from the cell lines HuH-7 and Li23, respectively, were cultured as described previously, [29]. HuH-7-derived OR6 [13], AH1R [30], and 1B-4R [Ikeda et al., submitted] cells harboring genome-length HCV-RNA and HuH-7-derived polyclonal sOR [31], and RSc-JRN/35B [Ikeda et al., submitted] cells harboring an HCV subgenomic replicon were cultured with medium in the presence of G418 (0.3 mg/ml; Geneticin, Invitrogen, Carlsbad, CA) as described previously. Li23-derived ORL8 [20], ORL11 [20], 1B-4RL [Ikeda et al., submitted], and KAH5RL [Ikeda et al., submitted] cells harboring genome-length HCV-RNA were maintained with medium in the presence of G418 (0.3 mg/ml) as described previously. Li23-derived polyclonal sORL8 and sORL11 cells harboring an HCV replicon, which were established by the transfection of ORN/3-5B/QR,KE,SR RNA into the cured OL8 and OL11 cells, respectively, were also cultured with medium in the presence of G418 (0.3 mg/ml) as described previously. Cured cells, from which the HCV-RNA had been eliminated by IFN treatment, were also maintained with medium in the absence of G418 as described previously. […] Therefore, when HCV-RNA is excluded from the cells or when its level is decreased, the cells are killed in the presence of G418.
(§3) RL assay was performed as described previously, [24]. Briefly, the cells were plated onto 24-well plates (2×10^4 cells per well) in triplicate and then treated with each reagent at several concentrations for 72 hrs. After treatment, the cells were subjected to luciferase assay using the RL assay system (Promega, Madison, WI). The experiments were performed at least in triplicate. From the assay results, the 50% effective concentration (EC50) of each reagent was determined.
as §2

[5] = set-up: method as in Kim et al., unpublished data; conditions: ref Kim et al., unpublished data; cited from earlier work
[6] = tested on: genome-length HCV-RNA (O strain of genotype 1b) replication in Li23-derived ORL8 cells; experiment: ORL8 RL assay; format: cell-based, hepatitis C virus; conditions: for EC50: Hepatitis C virus, Li23, HCV strain O, 72 hrs, RL assay
Description: RSc and D7 cells were derived from the cell lines HuH-7 and Li23, respectively, were cultured as described previously, [29]. HuH-7-derived OR6 [13], AH1R [30], and 1B-4R [Ikeda et al., submitted] cells harboring genome-length HCV-RNA and HuH-7-derived polyclonal sOR [31], and RSc-JRN/35B [Ikeda et al., submitted] cells harboring an HCV subgenomic replicon were cultured with medium in the presence of G418 (0.3 mg/ml; Geneticin, Invitrogen, Carlsbad, CA) as described previously. Li23-derived ORL8 [20], ORL11 [20], 1B-4RL [Ikeda et al., submitted], and KAH5RL [Ikeda et al., submitted] cells harboring genome-length HCV-RNA were maintained with medium in the presence of G418 (0.3 mg/ml) as described previously. Li23-derived polyclonal sORL8 and sORL11 cells harboring an HCV replicon, which were established by the transfection of ORN/3-5B/QR,KE,SR RNA into the cured OL8 and OL11 cells, respectively, were also cultured with medium in the presence of G418 (0.3 mg/ml) as described previously. […] Therefore, when HCV-RNA is excluded from the cells or when its level is decreased, the cells are killed in the presence of G418.
as §3, §2

[7] = WST-1 cell proliferation assay, AH1R cells; format: cell-based; conditions: human
Description: as §1

Compound | CC50 at 72 h [1] | anti-HCV activity for the HCV-JFH-1 strain [2] | EC50 [3] | EC50 [4] | blood concentration [5] | EC50 ([6]; ORL8 assay) | CC50 at 72 h [7] | anti-HCV activity (suppression) ([4]; 8 µM in OR6 cells, without a decrease in cell viability) | anti-HCV activity (suppression) ([6]; 1 µM in ORL8 cells, without a decrease in cell viability) | EC99 value ([6]; ORL8 assay)
OCCCCCCC1COOC2(CCCCCCCCCCC2)OOC1 [N-251, 6-(1,2,6,7-tetraoxaspiro[7.11]nonadec-4-yl)hexan-1-ol] | 4100 nM | did not show anti-HCV activity | 59 nM | 690 nM | approximately 1 µM | 100 nM | 490 nM |  |  | 
C1CCCCCC2(CCCCC1)OOCCCOO2 [N-89, 1,2,6,7-Tetraoxaspiro[7.11]nonadecane] | 1100 nM | did not show anti-HCV activity | 45 nM | 660 nM | approximately 1 µM | 89 nM | > 500 nM | > 99% | > 99% | 1 µM
